Measurements from patent publication US6358514B1, “Combination of a retinoid with a histidine derivative” (L'Oreal, priority 1998, dated 2002).

Type: physicochemical
Method: The stability of a retinoid is defined in accordance with the present invention by the percentage of the retinoid which remains in its original form after the composition comprising it has been stored for a given period and at a given temperature.
Test of stability of 0.3% all-trans retinol in a water/ethanol mixture stored at 45° C.
The conditions of the study are as follows: test compound at 0.1% (as weight/volume) in water/ethanol (40/60%) all-trans retinol sold by the company Fluka at 0.3% (as weight/volume) in water/ethanol (40/60%) aerobic medium with 55% by volume of air and 45% by volume of ethanol/water storage at 45° C. in amber-coloured bottles.
Degradation of the retinol under these conditions reaches 100% in 7 days of storage at 45° C. The storage conditions to which we subjected the compositions are particularly harsh.
The residual retinol content is monitored by HPLC (on a Spherisorb ODS1 C18 column, by elution with an H2O/CH3CO2H/CH3CO2NH4/acetonitrile mixture: 15/1/0.4/83.6) at 7 days (RT1) and 15 days (RT2) of storage at 45° C. in aerobic medium (55% by volume of air).

| Degradation of the retinol (7 days, 0.3 % (weight/volume)) | stabilization of retinol compared with the histidine derivatives | Compound |
| --- | --- | --- |
| 100% |  | CC1=C(/C=C/C(C)=C/C=C/C(C)=C/CO)C(C)(C)CCC1 [retinol, all-trans retinol] |
|  | stabilizes retinol much less | NCCC(=O)N[C@@H](Cc1cnc[nH]1)C(=O)O [carnosine] |
